Data set [1] deals with HLA-A2. Description: Peptide binding assay on T2 cells. Further details: species or system human. The settings on record: 50 µg/ml peptide, 37°C 18 h, FITC anti-HLA-A2 (BB7.2), flow cytometry, FI = (MFI peptide − MFI background)/MFI background. On the procedure: Peptide binding affinity to HLA-A2 was assessed using T2 cells, a cell line that expresses HLA-A2 molecules but is deficient in antigen presentation. […] After incubation, the cells were washed in Phosphate buffered saline (PBS) and further incubated with FITC-conjugated anti-HLA-A2 antibody (BB7.2; BD Biosciences) at 4°C for 45 min. The cells were then washed and re-suspended with 300 µl of PBS and subjected to flow cytometer analysis (FACS Calibur, BD Biosciences). The fluorescence index (FI) was calculated as follows: FI = mean fluorescence intensity (MFI) with the given peptide − MFI without peptide/MFI without peptide.

In a further data set the target is peptide/HLA-A2 complex (Homo sapiens, UniProt P04439, D140Y/D185E/D98H/E176V/E277Q/G131W/G231S/I119V/I121R/I166T/I218V/L300P/L318F/N151K/N90K/P208A/P217A/Q86G/Q94H/R138H/R169H/T345S). Kind of data set: Peptide/HLA-A2 complex stability assay on T2 cells. The data set is classed as binding. The settings on record: 50 μM peptide + β2 microglobulin 2.5 μg/ml, 18 h 37°C, brefeldin A 1 h, read at 0, 2, 4, 6 h, flow cytometry. On the procedure: T2 cells were collected and placed in 24-well plates (1 × 10^6/ml), 1 ml in each well. Predictive peptides (50 μM) and β2 microglobulin (2.5 μg/ml) were added, respectively. […] After the incubation, T2 cells were washed twice with cold PBS to clear the unbound peptide, then brefeldin A (10 μg/m) was added and incubated for 1 h. Then, cells were washed and incubated at 37°C for 0, 2, 4, and 6 h; FITC-labeled mouse anti-human HLA-A2 monoclonal antibody was added and incubated at 4°C for 30 min under dark conditions. The MFI of cells was detected by flow cytometry after washing twice. The results are expressed as dissociation complex 50 (DC50), meaning the time required for the loss of 50% of the stabilized peptide/complex.
For orientation: Flow cytometry measures light scatter and fluorescence of single cells or particles in a stream.

The next data set relates to IL-2. Description: IL-2 ELISA of DC/T-cell co-culture supernatant. In kind it is cell-based, human. The settings on record: 72 h co-culture supernatant, versus negative control peptide. On the procedure: Production of cytokines in the supernatants was determined using commercially available ELISA kits (Cloud-Clone Corporation, Wuhan, China) according to the protocol of the manufacturer. Approximately 50 μl of supernatant and different concentration standards were added and mixed with 100 μl of horseradish peroxidase (HRP) labeled detection antibody against a 96-well plate, respectively, except for the blank control. After incubation at 37°C for 60 min, we washed the plate five times. Add substrate A and substrate B 50 μl respectively, incubate for 15min in a 37°C incubator in dark. Then, 50 μl of stop solution was added and a 450 nm absorbance value (OD value) was measured within 15 min. The regression equation of the standard curve is calculated according to the concentration of the standard substance and the OD value, and the corresponding sample concentration is calculated on the basis of the regression equation.
Background: ELISA stands for enzyme-linked immunosorbent assay.

The test system of a further data set is autologous T cells. The note with it: T cells with peptide-pulsed autologous DCs 10:1, 72 h; versus DCs without peptide. On the procedure: PBMCs were isolated from the peripheral blood samples of 8 HLA-A2^+ healthy donors, with University Ethics Review Committee-approved, written consent. The effector T lymphocytes and DCs were prepared by our published method ([31]). CD8^+ T cells were isolated from PBMCs using CD8^+ negative selection MicroBeads EasySep™ Human CD8^+ T Cell Isolation Kit (17953, stemcell) according to the manufacturers.
For T-cell stimulation, T cells were cultured with RPMI1640 complete medium containing IL-2 (20 ng/ml) mixed with peptide-pulsed autologous DCs at a ratio of 10:1 and co-cultured for 72 h. The supernatant of DCs and T cells co-cultured for 72h was used to detect IL-2 and γ-IFN. The capacity of peptide-pulsed DCs to stimulate the proliferation of autologous T cells was evaluated using a Cell Counting Kit-8 (CCK-8, Beiltime Biotec, China), as described using our published method ([31]). CCK-8 solution (20 μl/well) was added in 2 h before the end of culture. Then, the optical density (OD) was measured by microplate tester. The stimulation index (SI) is calculated according to the following formula: SI = (experiment well OD value − background OD value)/(blank control well OD value − background OD value).

In data set [2] the test system is MAGE-D4 promoter. Description: Pyrosequencing of MAGE-D4 promoter in U87. The settings on record: U87, compared with control group. The data set is classed as cell-based, human. On the procedure: The human glioma cell lines (U87-MG and U251) were obtained from the Cell Bank of Type Culture Collection of the Chinese Academy of Science (Shanghai, China). […] A3656), valproic acid (VPA, CAS No. 99-66-1), and trichostatin A (TSA, CAS No. 58880-19-6) were purchased from Sigma-Aldrich Corporation (St. Louis, MO, USA). DAC and TSA were dissolved in DMSO to a concentration of 10 mM. Aliquots were stored at -80°C and diluted with media before being used. […] The methylation status of the MAGE-D4 promoter in cells was quantified by the PyroMark Q96 ID pyrosequencing platform (Qiagen), which was performed by Shanghai […] Biotech Co., Ltd. The methylation status of each site was analyzed automatically by the accompanying software Pyro Q-CpG (Qiagen). Two regions in the core promoter were detected, which contained 18 CpG sites. […]

In data set [3] the test system is MAGE-D4 promoter. Description: Pyrosequencing of MAGE-D4 promoter in U251. The data set is classed as cell-based, human. The settings on record: U251, compared with control group. On the procedure: The human glioma cell lines (U87-MG and U251) were obtained from the Cell Bank of Type Culture Collection of the Chinese Academy of Science (Shanghai, China). […] A3656), valproic acid (VPA, CAS No. 99-66-1), and trichostatin A (TSA, CAS No. 58880-19-6) were purchased from Sigma-Aldrich Corporation (St. Louis, MO, USA). DAC and TSA were dissolved in DMSO to a concentration of 10 mM. Aliquots were stored at -80°C and diluted with media before being used. Drug treatments were divided into seven groups: (1) DAC group: cells were cultured in medium on the presence of 1 μM DAC for 120 h; (2) VPA group: cells were grown in medium containing 1 mM VPA for 120 h; (3) TSA group: cells were cultured in medium supplemented with 1 μM TSA for 24 h; (4) D + V group: cells were cultured with 1 μM DAC and 1 mM VPA for 120 h; (5) D + T group: cells were cultured with 1 μM DAC for 120 h, followed by 1 μM TSA for 24 h; (6) Control group: cells were cultured with 0.09% DMSO, which is the highest concentration of DMSO used in this study in consideration of the potential toxicity of DMSO to living cells. Human recombinant interleukin (IL) IL-2, IL-4, and human recombinant granulocyte/macrophage colony-stimulating factor (GM-CSF) were purchased from R&D Systems. Genomic DNA was isolated from cells using a DNA Isolation Kit (Vazyme, China). The methylation status of the MAGE-D4 promoter in cells was quantified by the PyroMark Q96 ID pyrosequencing platform (Qiagen), which was performed by Shanghai […] Biotech Co., Ltd. The methylation status of each site was analyzed automatically by the accompanying software Pyro Q-CpG (Qiagen). Two regions in the core promoter were detected, which contained 18 CpG sites. Primers used in pyrosequencing were as follows: region 1: [NT] (forward) and [NT] (reverse); region 2: [NT] (forward) and [NT] (reverse). Sequences of the MAGE-D4 promoter and pyrosequencing regions containing CpG sites are listed in Supplemental Materials.

Data set [4] concerns HLA-A2. Description: HLA-A2 expression in U251. The data set is classed as cell-based, human. The settings on record: DAC 1 μM 120 h, TSA 1 μM 24 h. On the procedure: The human glioma cell lines (U87-MG and U251) were obtained from the Cell Bank of Type Culture Collection of the Chinese Academy of Science (Shanghai, China). […] A3656), valproic acid (VPA, CAS No. 99-66-1), and trichostatin A (TSA, CAS No. 58880-19-6) were purchased from Sigma-Aldrich Corporation (St. Louis, MO, USA). DAC and TSA were dissolved in DMSO to a concentration of 10 mM. Aliquots were stored at -80°C and diluted with media before being used. Drug treatments were divided into seven groups: (1) DAC group: cells were cultured in medium on the presence of 1 μM DAC for 120 h; (2) VPA group: cells were grown in medium containing 1 mM VPA for 120 h; (3) TSA group: cells were cultured in medium supplemented with 1 μM TSA for 24 h; (4) D + V group: cells were cultured with 1 μM DAC and 1 mM VPA for 120 h; (5) D + T group: cells were cultured with 1 μM DAC for 120 h, followed by 1 μM TSA for 24 h; (6) Control group: cells were cultured with 0.09% DMSO, which is the highest concentration of DMSO used in this study in consideration of the potential toxicity of DMSO to living cells. […] The cells were then harvested, washed with PBS buffer three times, and analyzed by a FACScan flow cytometer (BD Biosciences, Franklin Lakes, NJ, USA) using BD AccuriTM C6 Software (BD Biosciences).

A further data set has as its system U251. Kind of data set: LDH cytotoxicity assay and HLA block, U251. The settings on record: DAC + TSA-treated U251, E:T 50:1, 4 h. In kind it is cell-based, human. On the procedure: The human glioma cell lines (U87-MG and U251) were obtained from the Cell Bank of Type Culture Collection of the Chinese Academy of Science (Shanghai, China). Decitabine (DAC, CAS No. A3656), valproic acid (VPA, CAS No. 99-66-1), and trichostatin A (TSA, CAS No. 58880-19-6) were purchased from Sigma-Aldrich Corporation (St. Louis, MO, USA). DAC and TSA were dissolved in DMSO to a concentration of 10 mM. Aliquots were stored at −80°C and diluted with media before being used. Drug treatments were divided into seven groups: (1) DAC group: cells were cultured in medium on the presence of 1 μM DAC for 120 h; (2) VPA group: cells were grown in medium containing 1 mM VPA for 120 h; (3) TSA group: cells were cultured in medium supplemented with 1 μM TSA for 24 h; (4) D + V group: cells were cultured with 1 μM DAC and 1 mM VPA for 120 h; (5) D + T group: cells were cultured with 1 μM DAC for 120 h, followed by 1 μM TSA for 24 h; (6) Control group: cells were cultured with 0.09% DMSO, which is the highest concentration of DMSO used in this study in consideration of the potential toxicity of DMSO to living cells. Human recombinant interleukin (IL) IL-2, IL-4, and human recombinant granulocyte/macrophage colony-stimulating factor (GM-CSF) were purchased from R&D Systems.
The cytotoxic activity of MAGE-D4 peptide-specific CTLs to glioma cells was determined according to the instructions of the manufacturers by our published method ([31]). […] Four hours later, suspended cells were collected for CD107a flow cytometry, meanwhile, the supernatant was collected and analyzed with granzyme A and perforin ELISA kit (Cloud-Clone Corporation, Wuhan, China) at 450 nm, and the LDH kit (Promega, USA) at 490 nm. The percentage of specific lysis was calculated using the following formula: [(experimental release − spontaneous release)/(maximum release − spontaneous release)] × 100. […] Then, the cytotoxicity assay was measured and calculated as mentioned above.

As to TLTSFDIHI [Peptide P2], the “FI (fluorescence index, HLA-A*0201 binding affinity)” value with HLA-A2 [1] was determined as 0.877.
On the same count and under the same terms, the result for SVQSESYSV [Peptide P1] reads 0.007.
For VLCLPPRNV [Peptide P7], the “DC50 (time required for 50% dissociation of the HLA-A*0201/peptide complex)” value at peptide/HLA-A2 complex is less than 2 h.
Take ALQLDPETL [Peptide P5]: the “IL-2 secreted by DC-stimulated T cells” value in the data set on IL-2 is “higher IL-2”. In the data set with autologous T cells, the “stimulation index (SI), T-cell proliferation, CCK8” value is recorded as “can induce T-cell proliferation”.
Consider `CCCC(CCC)C(=O)O` [VPA, valproic acid], for which the “methylation level of MAGE-D4 promoter region 1” value in the data set with MAGE-D4 promoter [2] is “decreased significantly”. Moreover, in the data set with MAGE-D4 promoter [3], the “methylation level of MAGE-D4 promoter region 1” value was “decreased significantly”; the “methylation level of MAGE-D4 promoter region 2” value was “decreased significantly”; the “total methylation levels of regions 1 and 2 of MAGE-D4 core promoter” value is listed as “decreased significantly”.
In the case of `Nc1ncn([C@H]2C[C@H](O)[C@@H](CO)O2)c(=O)n1` [DAC, Decitabine], the “methylation level of MAGE-D4 promoter region 1” value in the data set on MAGE-D4 promoter [2] and with MAGE-D4 promoter [3] was “decreased significantly” in each case. For the same molecule, in the data set with HLA-A2 [4], the HLA-A2 levels entry is given as “elevated HLA-A2 levels with statistical significance”.
Regarding ILSNEPWEL [Peptide P4], the “DC50 (time required for 50% dissociation of the HLA-A*0201/peptide complex)” value at peptide/HLA-A2 complex was more than 2 h. For the same molecule, the “cytotoxicity of peptide-specific T cells (specific lysis, LDH)” value with U251 is on record as “cytotoxicity on the DAC + TSA-treated U251 cells with statistical significance”. The “stimulation index (SI), T-cell proliferation, CCK8” value in the data set on autologous T cells is reported as “can induce T-cell proliferation”.
For the molecule SLGPGLRIL [Peptide P3], the “FI (fluorescence index, HLA-A*0201 binding affinity)” value with HLA-A2 [1] worked out at 0.887.

These data come from PMC9382192, “Combined treatment with epigenetic agents enhances anti-tumor activity of MAGE-D4 peptide-specific T cells by upregulating the MAGE-D4 expression in glioma” (Frontiers in Oncology, 2022).
